Reference: patent publication US12534452B2, “N-(1H-imidazol-2-yl)benzamide compound and pharmaceutical composition comprising the same as active ingredient” (KAINOS MEDICINE, INC., priority 2019, dated 2026)

Biological target: IRAK4 (Homo sapiens (Human), UniProt Q9NWZ3)
Experiment: In vitro IRAK4 phosphorylation activity assay
Type: biochemical
Conditions: [γ-33P]-ATP, myelin basic protein substrate, 40 minutes at room temperature; categories
Summary of the method: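 Radiometric filter-binding assay, no compound–kinase preincubation; 8 mM MOPS pH 7.0, 0.2 mM EDTA, 10 mM Mg acetate, 0.33 mg/mL myelin basic protein substrate, [γ-33P]-ATP. Reaction 40 min at room temperature, stopped with phosphoric acid, scintillation counting; IC50 reported in categories.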

Sequence of IRAK4 (Q9NWZ3 whole entry): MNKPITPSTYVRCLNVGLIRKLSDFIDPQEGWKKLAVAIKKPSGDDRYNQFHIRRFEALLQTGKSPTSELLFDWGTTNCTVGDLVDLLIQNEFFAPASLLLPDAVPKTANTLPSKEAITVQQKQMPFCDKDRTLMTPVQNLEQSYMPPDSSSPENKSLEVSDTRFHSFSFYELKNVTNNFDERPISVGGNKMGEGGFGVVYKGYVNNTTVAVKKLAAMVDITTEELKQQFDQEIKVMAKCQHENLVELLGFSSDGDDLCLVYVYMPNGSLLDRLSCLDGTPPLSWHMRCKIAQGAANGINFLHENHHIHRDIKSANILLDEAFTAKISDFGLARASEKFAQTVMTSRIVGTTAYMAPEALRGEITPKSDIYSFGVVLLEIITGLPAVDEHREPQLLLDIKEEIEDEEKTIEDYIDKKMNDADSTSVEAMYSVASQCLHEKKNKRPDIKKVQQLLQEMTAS

SMILES	IC50 [nM]
CN(C)C1CCN(C(=O)CCCc2cn(-c3ccccc3)c(NC(=O)c3cccc(-c4ccc5ncsc5c4)c3)n2)CC1 [Example 281, 3-(benzo[d]thiazol-6-yl)-N-(4-(4-(4-(dimethylamino)piperidin-1-yl)-4-oxobutyl)-1-phenyl-1H-imidazol-2-yl)benzamide]	< 50
CN(C)CCCNC(=O)CCCc1cn(-c2ccccc2)c(NC(=O)c2cccc(-c3cnn(C)c3)c2)n1 [Example 163, N-(4-(4-((3-(dimethylamino)propyl)amino)-4-oxobutyl)-1-phenyl-1H-imidazol-2-yl)-3-(1-methyl-1H-pyrazol-4-yl)benzamide]	50 to 100
Cn1cc(-c2cccc(C(=O)Nc3nc(CCCC(=O)NCCO)cn3-c3ccccc3)c2)cn1 [Example 164, N-(4-(4-((2-hydroxyethyl)amino)-4-oxobutyl)-1-phenyl-1H-imidazol-2-yl)-3-(1-methyl-1H-pyrazol-4-yl)benzamide]	< 50
CCOC(C)n1cc(-c2cccc(C(=O)Nc3nc(CCCCCCN4CCCCC4)cn3-c3ccccc3)c2)cn1 (stereo not drawn) [Example 138, 3-(1-(1-ethoxyethyl)-1H-pyrazol-4-yl)-N-(1-phenyl-4-(6-(piperidin-1-yl)hexyl)-1H-imidazol-2-yl)benzamide]	50 to 100
O=C(Nc1nc(CCCCCC[N+]2([O-])CCCCC2)cn1-c1ccccc1)c1cccc(-c2cn[nH]c2)c1 [Example 125, 1-(6-(2-(3-(1H-pyrazol-4-yl)benzamido)-1-phenyl-1H-imidazol-4-yl)hexyl)piperidine 1-oxide]	< 50
O=C(CCCc1cn(-c2ccccc2)c(NC(=O)c2cccc(-c3cn[nH]c3F)c2)n1)NC1CC1 [Example 229, N-(4-(4-(cyclopropylamino)-4-oxobutyl)-1-phenyl-1H-imidazol-2-yl)-3-(5-fluoro-1H-pyrazol-4-yl)benzamide]	< 50
O=C(CCCc1cn(-c2ccccc2)c(NC(=O)c2cccc(-c3ccc4scnc4c3)c2)n1)NC1CC1 [Example 283, 3-(benzo[d]thiazol-5-yl)-N-(4-(4-(cyclopropylamino)-4-oxobutyl)-1-phenyl-1H-imidazol-2-yl)benzamide]	> 100
O=C(Nc1nc(CCCCCCN2CCCC2=O)cn1-c1ccccc1)c1cccc(-c2ccc3[nH]ncc3c2)c1 [Example 259, 3-(1H-indazol-5-yl)-N-(4-(6-(2-oxopyrrolidin-1-yl)hexyl)-1-phenyl-1H-imidazol-2-yl)benzamide]	< 50
Cn1cc(-c2cccc(C(=O)Nc3nc(CCCC(=O)N4CCNCC4)cn3-c3ccccc3)c2)cn1 [Example 202, 3-(1-methyl-1H-pyrazol-4-yl)-N-(4-(4-oxo-4-(piperazin-1-yl)butyl)-1-phenyl-1H-imidazol-2-yl)benzamide]	< 50
CNC(=O)Cc1cn(-c2ccccc2)c(NC(=O)c2ccc3[nH]ncc3c2)n1 [Example 49, N-(4-(2-(methylamino)-2-oxoethyl)-1-phenyl-1H-imidazol-2-yl)-1H-indazole-5-carboxamide]	> 100
Cn1cc(-c2cccc(C(=O)Nc3nc(CCCCCCN4CCCC4)cn3-c3ccccc3)c2)cn1 [Example 222, 3-(1-methyl-1H-pyrazol-4-yl)-N-(1-phenyl-4-(6-(pyrrolidin-1-yl)hexyl)-1H-imidazol-2-yl)benzamide]	< 50
O=C(Nc1nc(CCCCCN2CCCCC2)cn1-c1ccccc1)c1cccc(-c2cn[nH]c2)c1 [Example 118, N-(1-phenyl-4-(5-(piperidin-1-yl)pentyl)-1H-imidazol-2-yl)-3-(1H-pyrazol-4-yl)benzamide]	< 50
O=C(Nc1nc(CCCCCC(=O)N2CCCC2)cn1-c1ccccc1)c1cccc(-c2ccc3[nH]ncc3c2)c1 [Example 240, 3-(1H-indazol-5-yl)-N-(4-(6-oxo-6-(pyrrolidin-1-yl)hexyl)-1-phenyl-1H-imidazol-2-yl)benzamide]	< 50
Cn1ncc2cc(-c3cccc(C(=O)Nc4nc(CCCCCCN5CCOCC5)cn4-c4ccccc4)c3)ccc21 [Example 264, 3-(1-methyl-1H-indazol-5-yl)-N-(4-(6-morpholinohexyl)-1-phenyl-1H-imidazol-2-yl)benzamide]	> 100
Cn1cc(-c2cccc(C(=O)Nc3nc(CCCC(=O)NC4CCC(O)CC4)cn3-c3ccccc3)c2)cn1 [Example 156, N-(4-(4-(((1R,4R)-4-hydroxycyclohexyl)amino)-4-oxobutyl)-1-phenyl-1H-imidazol-2-yl)-3-(1-methyl-1H-pyrazol-4-yl)benzamide]	< 50
Cn1cc(-c2cccc(C(=O)Nc3nc(CCCC(=O)N4CCC(N5CCCC5)CC4)cn3-c3ccccc3)c2)cn1 [Example 154, 3-(1-methyl-1H-pyrazol-4-yl)-N-(4-(4-oxo-4-(4-(pyrrolidin-1-yl)piperidin-1-yl)butyl)-1-phenyl-1H-imidazol-2-yl)benzamide]	< 50
Cn1cc(-c2cccc(C(=O)Nc3nc(CCCC(=O)NCC(C)(C)O)cn3-c3ccccc3)c2)cn1 [Example 170, N-(4-(4-((2-hydroxy-2-methylpropyl)amino)-4-oxobutyl)-1-phenyl-1H-imidazol-2-yl)-3-(1-methyl-1H-pyrazol-4-yl)benzamide]	< 50
COC[C@H]1CCCN1C(=O)CCCCCc1cn(-c2ccccc2)c(NC(=O)c2cccc(-c3cn[nH]c3)c2)n1 [Example 101, (R)—N-(4-(6-(2-(methoxymethyl)pyrrolidin-1-yl)-6-oxohexyl)-1-phenyl-1H-imidazol-2-yl)-3-(1H-pyrazol-4-yl)benzamide]	< 50
CN1CCCN(C(=O)CCCc2cn(-c3ccccc3)c(NC(=O)c3cccc(-c4cnn(C)c4)c3)n2)CC1 [Example 183, N-(4-(4-(4-methyl-1,4-diazepan-1-yl)-4-oxobutyl)-1-phenyl-1H-imidazol-2-yl)-3-(1-methyl-1H-pyrazol-4-yl)benzamide]	< 50

Other lines, results leading:

IC50 [nM]	SMILES
< 50	O=C(CCCCc1cn(-c2ccccc2)c(NC(=O)c2cccc(-c3cn[nH]c3)c2)n1)NC1CC1 [Example 88, N-(4-(5-(cyclopropylamino)-5-oxopentyl)-1-phenyl-1H-imidazol-2-yl)-3-(1H-pyrazol-4-yl)benzamide]
< 50	CN1CCN(CCCc2cn(-c3ccccc3)c(NC(=O)c3cccc(-c4cn[nH]c4)c3)n2)CC1 [Example 108, N-(4-(3-(4-methylpiperazin-1-yl)propyl)-1-phenyl-1H-imidazol-2-yl)-3-(1H-pyrazol-4-yl)benzamide]
> 100	O=C(CCc1cn(-c2ccccc2)c(NC(=O)c2cccc(-c3cn[nH]c3)c2)n1)Nc1ccccn1 [Example 15, N-(4-(3-oxo-3-(pyridin-2-ylamino)propyl)-1-phenyl-1H-imidazol-2-yl)-3-(1H-pyrazol-4-yl)benzamide]
< 50	C[C@@H]1CCCCN1C(=O)CCc1cn(-c2ccccc2)c(NC(=O)c2cccc(-c3cn[nH]c3)c2)n1 [Example 30, (R)—N-(4-(3-(2-methylpiperidin-1-yl)-3-oxopropyl)-1-phenyl-1H-imidazol-2-yl)-3-(1H-pyrazol-4-yl)benzamide]
< 50	C[C@H]1CCCN1C(=O)CCc1cn(-c2ccccc2)c(NC(=O)c2cccc(-c3cn[nH]c3)c2)n1 [Example 24, (S)—N-(4-(3-(2-methylpyrrolidin-1-yl)-3-oxopropyl)-1-phenyl-1H-imidazol-2-yl)-3-(1H-pyrazol-4-yl)benzamide]
> 100	O=C(CCc1cn(-c2ccccc2)c(NC(=O)c2cccc(-c3cn[nH]c3)c2)n1)NN1CCCC1 [Example 27, N-(4-(3-oxo-3-(pyrrolidin-1-ylamino)propyl)-1-phenyl-1H-imidazol-2-yl)-3-(1H-pyrazol-4-yl)benzamide]
< 50	C[C@H]1CCCCN1C(=O)CCCc1cn(-c2ccccc2)c(NC(=O)c2cccc(-c3cn[nH]c3)c2)n1 [Example 62, (S)—N-(4-(4-(2-methylpiperidin-1-yl)-4-oxobutyl)-1-phenyl-1H-imidazol-2-yl)-3-(1H-pyrazol-4-yl)benzamide]
< 50	O=C(Nc1nc(CCCNc2ccccc2)cn1-c1ccccc1)c1cccc(-c2cn[nH]c2)c1 [Example 109, N-(1-phenyl-4-(3-(phenylamino)propyl)-1H-imidazol-2-yl)-3-(1H-pyrazol-4-yl)benzamide]
> 100	O=C(CCc1cn(-c2ccccc2)c(NC(=O)c2cccc(-c3cn[nH]c3)c2)n1)Nc1cnccn1 [Example 22, N-(4-(3-oxo-3-(pyrazin-2-ylamino)propyl)-1-phenyl-1H-imidazol-2-yl)-3-(1H-pyrazol-4-yl)benzamide]
50 to 100	COC[C@@H]1CCCN1C(=O)CCc1cn(-c2ccccc2)c(NC(=O)c2cccc(-c3cn[nH]c3)c2)n1 [Example 19, (S)—N-(4-(3-(2-(methoxymethyl)pyrrolidin-1-yl)-3-oxopropyl)-1-phenyl-1H-imidazol-2-yl)-3-(1H-pyrazol-4-yl)benzamide]
< 50	O=C(Nc1nc(CCCO)cn1-c1ccccc1)c1cccc(-c2cn[nH]c2)c1 [Example 105, N-(4-(3-hydroxypropyl)-1-phenyl-1H-imidazol-2-yl)-3-(1H-pyrazol-4-yl)benzamide]
< 50	C[C@@H]1CCC[C@H](C)N1C(=O)CCCCc1cn(-c2ccccc2)c(NC(=O)c2cccc(-c3cn[nH]c3)c2)n1 [Example 81, N-(4-(5-((2R,6S)-2,6-dimethylpiperidin-1-yl)-5-oxopentyl)-1-phenyl-1H-imidazol-2-yl)-3-(1H-pyrazol-4-yl)benzamide]
< 50	CNC(=O)CCc1cn(-c2ccccc2)c(NC(=O)c2cccc(-c3cn[nH]c3)c2)n1 [Example 33, N-(4-(3-(methylamino)-3-oxopropyl)-1-phenyl-1H-imidazol-2-yl)-3-(1H-pyrazol-4-yl)benzamide]
> 100	O=C(CCc1cn(-c2ccccc2)c(NC(=O)c2cccc(-c3c[nH]nc3[N+](=O)[O-])c2)n1)Nc1ccccc1 [Example 1, 3-(3-nitro-1H-pyrazol-4-yl)-N-(4-(3-oxo-3-(phenylamino)propyl)-1-phenyl-1H-imidazol-2-yl)benzamide]
